# Values joined by “and” are separate entries in the source; they are usually repeats but may differ in a detail not shown here. Identical values can stand only once. Like-named read-outs stand apart in the source and are kept apart here.
# Key:
# human topoisomerase I = target: T1, human topoisomerase I (Homo sapiens, UniProt P11387); test: Topo I cleavage assay (plasmid YEpG DNA); format: biochemical; conditions: for Topo I-mediated DNA cleavage (REC, Relative Effective Concentration): concentration relative to camptothecin (CPT) = 1 producing the same cleavage on the plasmid DNA
# T1 construct: 15 amino acid vector-derived fusion (pET-11a leader); made in house; host or cells: E. coli BL21(DE3)
# T1 sequence (P11387 1-765): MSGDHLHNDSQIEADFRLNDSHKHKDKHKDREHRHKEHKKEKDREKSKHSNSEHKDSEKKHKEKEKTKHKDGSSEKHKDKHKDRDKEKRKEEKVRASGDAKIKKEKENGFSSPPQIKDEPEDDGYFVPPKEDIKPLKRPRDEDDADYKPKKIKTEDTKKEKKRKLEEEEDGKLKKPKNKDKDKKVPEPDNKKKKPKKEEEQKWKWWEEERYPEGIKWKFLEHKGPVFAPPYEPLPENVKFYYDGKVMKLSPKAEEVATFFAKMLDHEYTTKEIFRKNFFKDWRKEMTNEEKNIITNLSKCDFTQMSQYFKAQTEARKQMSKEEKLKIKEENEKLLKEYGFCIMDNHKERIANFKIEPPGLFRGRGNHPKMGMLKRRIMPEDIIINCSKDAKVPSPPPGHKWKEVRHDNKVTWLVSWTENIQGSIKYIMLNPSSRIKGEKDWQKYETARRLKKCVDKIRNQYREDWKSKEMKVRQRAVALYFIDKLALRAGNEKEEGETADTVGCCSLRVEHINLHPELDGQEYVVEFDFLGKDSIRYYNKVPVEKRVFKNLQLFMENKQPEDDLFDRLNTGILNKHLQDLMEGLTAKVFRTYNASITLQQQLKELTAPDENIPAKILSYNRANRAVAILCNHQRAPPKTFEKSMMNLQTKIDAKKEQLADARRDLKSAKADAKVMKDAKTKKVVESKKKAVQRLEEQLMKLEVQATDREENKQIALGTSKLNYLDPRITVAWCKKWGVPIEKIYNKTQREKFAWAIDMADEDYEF
# Description: To obtain large quantity of human topoisomerase I, the human topoisomerase I cDNA was cloned into the pET-11a vector, in which transcription of the cDNA is under the control of the inducible T7 promoter (Studier et al., Methods in Enzymol., Vol. 185:60-89, San Diego: Academic Press (1990)). Briefly, a 3.4 kb DNA fragment containing the entire coding sequence of human topoisomerase I and approximately 1 kb of untranslated region downstream of the stop codon was isolated from the plasmid YCpGAL1-hTOP1 (Bjornsti et al., Cancer Res. 49:6318-6323 (1989)) by cutting at the BamHI and EcoRI sites. The vector pET-11a was cut with the same restriction enzymes, dephosphorylated and ligated to the insert in the proper reading-frame downstream of the vector cloning site. The ligation mixture was used to transform E. coli, the correct clone pET1B was isolated (see figure 2A for the map) and its identity confirmed by restriction mapping. Since the translational start in pET is positioned at an upstream NdeI site, the expressed topoisomerase I has a 15 amino acid fusion at its N-terminus. pET1B was then transformed into E. coli BL21(DE3), and, upon induction with 0.4 mM IPTG for 1 hour, the bacterial lysate was analyzed by 10 % SDS-PAGE. Expression was confirmed by Western blotting using rabbit antibodies against human topoisomerase I. Isolation of the expressed protein was done by a simple procedure. Briefly, E. coli cells were lysed by repeated sonic bursts. The sonic extract was made in 1 M NaCl and 6% polyethylene glycol (PEG) to remove nucleic acids. The PEG supernatant was chromatographed directly on a hydroxyapatite column. Expressed human DNA topoisomerase I was eluted at the 0.6 M potassium phosphate step. The eluted enzyme was dialyzed against 50% glycerol, 30 mM potassium phosphate (pH 7.0), 1 mM dithiothreitol (DTT) and 0.1 mM EDTA and stored at -20°C.
# (§1) Cleavage assays for the recombinant topoisomerases I and calf thymus topoisomerases I and II were done as described (Liu et al., J. Biol. Chem. 258:15365-15370 (1983)). The plasmid YEpG DNA used for the cleavage assays was prepared and labeled at its 3'-end using the published procedures.
# [1] = tested on: calf thymus topoisomerase II; test: Topo II cleavage assay (plasmid YEpG DNA); format: biochemical; conditions: concentration relative to VM-26 = 1 producing the same cleavage on the plasmid DNA
# Description: The plasmid pET11a and the E. coli strain BL21(DE3) used for enzyme expression were purchased from Novagen. IPTG was purchased from Sigma. The ECL system used for the Western blotting analysis of bacterial lysates was from Amersham (UK). All the restriction enzymes and Vent polymerase were from New England Biolabs. Mammalian topoisomerase II was isolated from calf thymus glands according to the published procedure (Halligan et al., J. Biol. Chem. 260:2475-2482 (1985)). The single copy yeast plasmids YCpGAL1 expressing various topoisomerase I genes in JN2-134 yeast strain were a kind gift of Dr. M-A. Bjornsti (Thomas Jefferson University, Philadelphia, PA). All bacterial and yeast media were from Difco (Detroit, MI), while cell culture media were purchased from Gibco-BRL (Gaithersburg, MD).
# as §1
# [2] = tested on: Human lymphoblast RPMI 8402 cells; test: MTT-microtiter plate tetrazolinium cytotoxicity assay (MTA); format: cell-based; conditions: for IC50: Homo sapiens, RPMI 8402, 96 h, read-out: Cytotoxicity IC50 RPMI
# Description: The results were plotted and the IC50 then measured.
# [3] = tested on: camptothecin-resistant CPT-K5 cells; test: MTT-microtiter plate tetrazolinium cytotoxicity assay (MTA), camptothecin-resistant cells; conditions: Homo sapiens, CPT-K5, 96 h, read-out: Cytotoxicity IC50 CPT-K5
# Experimental: The IC50 of the drugs tested were determined by the MTT-microtiter plate tetrazolinium cytotoxicity assay (MTA) (Mosmann, T., J. Immunol. Methods 65:55-63 (1983); Denizot et al., J. Immunol. Methods 89:271-277 (1986)). Human lymphoblast RPMI 8402 cells and their camptothecin-resistant CPT-K5 cells (Andoh et al., Proc. Natl. Acad. Sci., USA 84:5565-5569 (1987)) were kindly provided by Dr. Toshiwo Andoh (Aichi Cancer Center Research Institute, Nagoya, Japan). […] Cells (2000 cells/well, seeded in […] growth medium) were grown in suspension at 37°C in 5% CO2 and maintained by regular passage in RPMI medium supplemented with 10% heat inactivated fetal bovine serum, L-glutamine (2 mM), penicillin (100 U/ml), and streptomycin (0.1 mg/ml). The cells were exposed continuously for 4 days to different drug concentrations, and assayed at the end of the fourth day. Each concentration and the no drug control were repeated at least twice in 6 replica wells. The results were plotted and the IC50 then measured. The drug sensitive human epidermoid carcinoma KB 3-1 cell line and its vinblastine-selected multidrug-resistant variant KB-V1 cells (Akiyama et al., Genetics 11:117-126 (1985)) were kindly provided by Dr. Michael Gottesmann (National Cancer Institute). They were grown as monolayer cultures at 37°C in 5% CO2 and maintained by regular passage in Dulbecco's minimal essential medium supplemented with 10% heat inactivated fetal bovine serum. KB-V1 cells were maintained in the presence of […] vinblastine.
smiles,measurement,setting,value
"COc1cc2cc3[n+](cc2cc1OC)CCc1c-3ccc(OC)c1OC.[Cl-] [Compound 8b, 5,6-Dihydro-3,4,10,11-tetramethoxydibenzo[a,g]quinolizinium chloride]","Topo I-mediated DNA cleavage (REC, Relative Effective Concentration)",human topoisomerase I,>1000
same,"Topo II-mediated DNA cleavage (REC, Relative Effective Concentration)",[1],1000
same,IC50,[2],9 µM
same,IC50,[3],6.4 µM
"COc1cc2cc3[n+](cc2cc1OC)CCc1c-3ccc2c1OCO2.[Cl-] [Compound 8c, 5,6-Dihydro-3,4-methylenedioxy-10,11-dimethoxydibenzo[a,g]quinolizinium chloride]","Topo I-mediated DNA cleavage (REC, Relative Effective Concentration)",human topoisomerase I,1
same,EC (total cleavage),human topoisomerase I; read-out: concentration giving total cleavage of DNA in the presence of topoisomerase I,0.27 µM and 0.1 µg/mL
same,"Topo II-mediated DNA cleavage (REC, Relative Effective Concentration)",[1],50
same,IC50,[2],8.1 µM
same,IC50,[3],27 µM
COc1ccc(Cc2nccc3cc(OC)c(OC)cc23)cc1OC [Compound 9a],"Topo I-mediated DNA cleavage (REC, Relative Effective Concentration)",human topoisomerase I,>1000
same,"Topo II-mediated DNA cleavage (REC, Relative Effective Concentration)",[1],1000
same,IC50,[2]; 4 days of continuous drug exposure,24 µM
same,IC50,[3],29 µM
"COc1ccc(Cc2nccc3c(OC)c(OC)ccc23)cc1OC.Cl [Compound 9b, 5,6-Dimethoxy-1-(3,4-dimethoxybenzyl)isoquinoline hydrochloride]","Topo I-mediated DNA cleavage (REC, Relative Effective Concentration)",human topoisomerase I,>1000
same,"Topo II-mediated DNA cleavage (REC, Relative Effective Concentration)",[1],1000
same,IC50,[2],15 µM
same,IC50,[3],15 µM
"COc1ccc(Cc2nccc3c4c(ccc23)OCO4)cc1OC [Compound 9c, 5,6-Methylenedioxy-1-(3,4-dimethoxybenzyl)isoquinoline]","Topo I-mediated DNA cleavage (REC, Relative Effective Concentration)",human topoisomerase I,>1000
same,"Topo II-mediated DNA cleavage (REC, Relative Effective Concentration)",[1],>1000
same,cytotoxicity against RPMI 8402 cells (in words),[2],appreciable cytotoxicity
same,IC50,[2],9.3 µM
same,IC50,[3],15 µM
"COc1cc2cc3c4cc(OC)c(OC)cc4cc[n+]3cc2cc1OC.[Cl-] [Compound 10a, 2,3,10,11-Tetramethoxydibenzo[a,g]quinolizinium chloride]","Topo I-mediated DNA cleavage (REC, Relative Effective Concentration)",human topoisomerase I,1000
same,"Topo II-mediated DNA cleavage (REC, Relative Effective Concentration)",[1],10
same,IC50,[2],13 µM
same,IC50,[3],> 32 µM
"COc1cc2cc3c4ccc(OC)c(OC)c4cc[n+]3cc2cc1OC.[Cl-] [Compound 10b, 3,4,10,11-Tetramethoxydibenzo[a,g]quinolizinium chloride]","Topo I-mediated DNA cleavage (REC, Relative Effective Concentration)",human topoisomerase I,>1000
same,"Topo II-mediated DNA cleavage (REC, Relative Effective Concentration)",[1],100
same,IC50,[2],2.6 µM
same,IC50,[3],5.2 µM
"COc1cc2cc3c4ccc5c(c4cc[n+]3cc2cc1OC)OCO5.[Cl-] [Compound 10c, 3,4-Methylenedioxy-10,11-dimethoxydibenzo[a,g]quinolizinium chloride]","Topo I-mediated DNA cleavage (REC, Relative Effective Concentration)",human topoisomerase I,10
same,"Topo II-mediated DNA cleavage (REC, Relative Effective Concentration)",[1],2
same,IC50,[2],0.8 µM
same,IC50,[3],6.8 µM
"COc1cc2cc(-c3ccc4c(c3)OCO4)nc(C)c2cc1OC [Compound 12b, 6,7-Dimethoxy-1-methyl-3-(3,4-methylenedioxyphenyl)isoquinoline]","Topo I-mediated DNA cleavage (REC, Relative Effective Concentration)",human topoisomerase I,1000
same,"Topo II-mediated DNA cleavage (REC, Relative Effective Concentration)",[1],>1000
same,IC50,[2],22 µM
same,IC50,[3],31 µM
"Cc1nc(-c2ccc(O)c(O)c2)cc2cc(O)c(O)cc12 [Compound 13, 6,7-Dihydroxy-1-methyl-3-(3,4-dihydroxyphenyl)isoquinoline]","Topo I-mediated DNA cleavage (REC, Relative Effective Concentration)",human topoisomerase I,>1000
same,"Topo II-mediated DNA cleavage (REC, Relative Effective Concentration)",[1],>1000
same,cytotoxicity against RPMI 8402 cells (in words),[2],appreciable cytotoxicity
same,IC50,[2],7.1 µM
same,IC50,[3],99 µM

# Reference: EP0888346B1, “CORALYNE ANALOGS AS TOPOISOMERASE INHIBITORS” (RUTGERS, THE STATE UNIVERSITY OF NEW JERSEY, priority 1996, dated 1997)
